The text below walks through data of paper PMC8848500 (Bioorganic & medicinal chemistry, 2020).

A value given as a limit tells only on which side of the number the result lay.

Data set [1] is described as follows: Chemical stability at room temperature. Type of data set: physicochemical. The note with it: conversion to precursors 14 and 18.
Data set [2] concerns the target T1, human neutrophil elastase (HNE) (Homo sapiens, UniProt P08246).
T1 sequence (P08246 30-267): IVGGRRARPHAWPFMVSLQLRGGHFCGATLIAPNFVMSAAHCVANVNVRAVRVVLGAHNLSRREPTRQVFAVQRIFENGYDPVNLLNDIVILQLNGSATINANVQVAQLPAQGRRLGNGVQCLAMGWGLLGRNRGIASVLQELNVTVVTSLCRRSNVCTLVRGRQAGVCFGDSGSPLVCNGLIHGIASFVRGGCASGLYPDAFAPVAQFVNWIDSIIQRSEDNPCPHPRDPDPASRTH
As to the kind of experiment: HNE inhibition assay. It counts as biochemical.

Turning to `Cc1cccc(C(=O)n2ccc3nccnc32)c1` [Compound 15a, (5H-Pyrrolo[2,3-b]pyrazin-5-yl)(m-tolyl)methanone], the chemical stability result in data set [1] is reported as “not chemically stable”.
For the compound `Cc1cccc(C(=O)n2nc(C#N)c3cccnc32)c1` [Compound 2e, 1-(3-Methylbenzoyl)-1H-pyrazolo[3,4-b]pyridine-3-carbonitrile], in data set [2] (HNE IC50 versus reference A), the “fold less potent than A” value worked out at 47 fold.
Regarding `N#Cc1cn(C(=O)C2CC2)c2cnccc12` [Compound 13f, 1-(Cyclopropanecarbonyl)-1H-pyrrolo[2,3-c]pyridine-3-carbonitrile], in data set [2], the “HNE inhibitory activity (in words)” value is “reduced activity compared to the reference compounds B and C”.
For the compound `CC(=O)n1nc(NC(=O)c2cccc(C)c2)c2cccnc21` [Compound 9, N-(1-Acetyl-1H-pyrazolo[3,4-b]pyridin-3-yl)-3-methylbenzamide], in data set [2], the IC50 amounted to 25.2 ± 1.3 µM.
For the compound `Cc1cccc(C(=O)n2cc(C#N)c3ccncc32)c1` [Compound 13e, 1-(3-Methylbenzoyl)-1H-pyrrolo[2,3-c]pyridine-3-carbonitrile], the “HNE inhibitory activity (in words)” value in data set [2] is “reduced activity compared to the reference compounds B and C”.
On the same count and under the same terms, for `N#Cc1nn(C(=O)C2CCCCC2)c2ncccc12` [Compound 2i, 1-(Cyclohexanecarbonyl)-1H-pyrazolo[3,4-b]pyridine-3-carbonitrile] the value was “loss of activity”.
For the compound `COc1cccc(CNC(=O)c2cnc3c(Cl)c(C(C)(C)C)nn3c2C)c1` [Compound 22f, 2-(tert-Butyl)-3-chloro-N-(3-methoxybenzyl)-7-methylpyrazolo[1,5-a]pyrimidine-6-carboxamide], the IC50 in data set [2] is above 50 µM.
The same measure, in the same setting: for `COc1cccc(CNC(=O)c2cnc3cc(C)nn3c2C)c1` [Compound 22d, N-(3-Methoxybenzyl)-2,7-dimethylpyrazolo[1,5-a]pyrimidine-6-carboxamide] the value was above 50 µM.
Still for that read-out and setting: for `COc1cccc(NC(=O)c2cnc3cc(C)nn3c2C)c1` [Compound 22a, N-(3-Methoxyphenyl)-2,7-dimethylpyrazolo[1,5-a]pyrimidine-6-carboxamide] the value was above 50 µM; for `N#Cc1nn(C(=O)c2ccccc2)c2ncccc12` [Compound 2d, 1-Benzoyl-1H-pyrazolo[3,4-b]pyridine-3-carbonitrile], 0.14 µM.
On to `N#Cc1nn(Cc2ccccc2)c2ncccc12` [Compound 2c, 1-Benzyl-1H-pyrazolo[3,4-b]pyridine-3-carbonitrile], for which, in data set [2], the “HNE inhibitory activity (in words)” value is “complete loss of HNE inhibitory activity” and the 50% inhibitory concentration (IC50) was above 50 µM.
In turn, `O=C(Nc1nn(C(=O)C2CC2)c2ncccc12)C1CC1` [Compound 7, N-(1-(Cyclopropanecarbonyl)-1H-pyrazolo[3,4-b]pyridin-3-yl)cyclopropanecarboxamide] registered a half-inhibitory concentration (IC50) in data set [2] of 1.5 ± 0.14 µM.
For `O=C(C1CC1)n1ccc2nccnc21` [Compound 15b, Cyclopropyl(5H-pyrrolo[2,3-b]pyrazin-5-yl)methanone], the “HNE inhibitory activity (in words)” value in data set [2] is given as “reduced activity by two orders of magnitude”.
In data set [2], `COc1cccc(NC(=O)c2cnc3cc(C(C)(C)C)nn3c2C)c1` [Compound 22b, 2-(tert-Butyl)-N-(3-methoxyphenyl)-7-methylpyrazolo[1,5-a]pyrimidine-6-carboxamide] showed an IC50 above 50 µM.
On to `COc1cccc(CNC(=O)c2cnc3cc(C(C)(C)C)nn3c2C)c1` [Compound 22e, 2-(tert-Butyl)-N-(3-methoxybenzyl)-7-methylpyrazolo[1,5-a]pyrimidine-6-carboxamide], for which the IC50 in data set [2] is above 50 µM.
Same read-out and setting: for `COc1cccc(NC(=O)c2cnc3c(Cl)c(C(C)(C)C)nn3c2C)c1` [Compound 22c, 2-(tert-Butyl)-3-chloro-N-(3-methoxyphenyl)-7-methylpyrazolo[1,5-a]pyrimidine-6-carboxamide] the value was above 50 µM.
Take `Cc1cccc(C(=O)n2cc(C#N)c3nccnc32)c1` [Compound 19a, 5-(3-Methylbenzoyl)-5H-pyrrolo[2,3-b]pyrazine-7-carbonitrile]: in data set [1], the chemical stability entry is recorded as “not chemically stable”.
